Test results published in patent US20230255952A1, “METHODS FOR TREATING CHRONIC OBSTRUCTIVE PULMONARY DISEASE” (THERAVANCE BIOPHARMA R&D IP, LLC, priority 2018, published 2023).
Entries after “also recorded” stand apart in the source; their conditions may differ.

System: subjects with chronic obstructive pulmonary disease and a low peak inspiratory flow rate
Assay: 28-day randomized, double-blind, double-dummy, parallel-group clinical study: once-daily revefenacin by nebulizer vs once-daily tiotropium by dry powder inhaler, lung function
Type: in vivo, human
Conditions: for Trough FEV1, LS Mean (SE) / Trough FVC, LS Mean (SE) / Trough IC, LS Mean (SE): change from baseline after 28 once-daily doses, TIO 18 μg dry powder inhaler, REV 175 μg nebulizer; for Trough FEV1, LS Difference (SE), REV vs TIO / Trough FVC, LS Difference (SE), REV vs TIO / Trough IC, LS Difference (SE), REV vs TIO: REV 175 μg nebulizer vs TIO 18 μg dry powder inhaler
Procedure: A 28-day, randomized, double-blind, double-dummy, parallel-group study was conducted to compare once-daily revefenacin (175 μg of revefenacin in 3 mL of an isotonic, sterile aqueous solution containing sodium chloride, citric acid, sodium citrate, and water for injection at pH 5.0) delivered using a nebulizer (Trek S jet nebulizer (PARI, Midlothian, Va., USA) with once-daily tiotropium (18 μg/day) delivered using a dry powder inhaler (Spiriva HandiHaler, Boebringer Ingelheim Pharmaceuticals, Inc., Ridgefield, Conn., USA) on lung function in subjects with chronic obstructive pulmonary disease and a low peak inspiratory flow rate. Subjects with moderate to very severe COPD were allowed to use concurrent respiratory therapy with the exception of other inhaled anticholinergics. The primary endpoint of the study was the change from baseline in trough forced expiratory volume in one second (FEV1) after the 28th dose. Secondary endpoints included the change from baseline in peak FEV1, trough forced vital capacity (FVC), peak FVC and trough inspiratory capacity (IC) as well as the safety and tolerability of revefenacin 175 μg. Inclusion criteria were: age≥40 years; a smoking history≥10 pack years; a diagnosis of COPD (post-bronchodilator FEV1≤80% predicted and FEV/FVC≤70%); peak inspiratory flow rate (PIFR)<60 L/min as measured by IN-CHECK® DIAL device with resistance set to DISKUS® at screening.
In this study, revefenacin (REV) (administered using a nebulizer) or tiotropium (TIC)) (administered using a dry powder inhaler) was dosed once-daily for 28 days, Peak inspiratory flow rates (best of three) were determined at screening, randomization and end of study using the IN-CHECK® DIAL device with the resistance set to a resistance equal or similar to the resistance associated with the DISKUS® device. FEV1, FVC and IC were measured at baseline and/or peak on day 1 and on day 29. Safety was assessed via the collection of adverse events.

[1] = % predicted FEV1 <50% subpopulation, PIFR <60 L/min
[2] = ITT population, all subjects PIFR <60 L/min
[3] = ITT population, all subjects low PIFR, listed as revefenacin
[4] = subjects with low PIFR (<60 L/min) and percent predicted FEV1 <50%, listed as revefenacin

| SMILES | Trough FEV1, LS Mean (SE) [1] | Trough FVC, LS Mean (SE) [1] | Trough IC, LS Mean (SE) [1] | Trough FEV1, LS Mean (SE) [2] | Trough FVC, LS Mean (SE) [2] | Trough IC, LS Mean (SE) [2] | Trough FEV1, LS Difference (SE), REV vs TIO [1] | Trough FVC, LS Difference (SE), REV vs TIO [1] | Trough IC, LS Difference (SE), REV vs TIO [1] | Trough IC, revefenacin by nebulizer compared to tiotropium by dry powder inhaler (in words) (ITT population or subpopulation with low PIFR and percent predicted FEV1 <50%, listed as revefenacin) | Trough FEV1, LS Difference (SE), REV vs TIO (ITT population, PIFR <60 L/min) | Trough FVC, LS Difference (SE), REV vs TIO (ITT population, PIFR <60 L/min) | Trough IC, LS Difference (SE), REV vs TIO (ITT population, PIFR <60 L/min) | Trough FEV1, revefenacin by nebulizer compared to tiotropium by dry powder inhaler (in words) [3] | Trough FVC, revefenacin by nebulizer compared to tiotropium by dry powder inhaler (in words) [3] | Trough FEV1, revefenacin by nebulizer compared to tiotropium by dry powder inhaler (in words) [4] | Trough FVC, revefenacin by nebulizer compared to tiotropium by dry powder inhaler (in words) [4] |
| --- | --- | --- | --- | --- | --- | --- | --- | --- | --- | --- | --- | --- | --- | --- | --- | --- | --- |
| C[N+]1(C)[C@@H]2C[C@@H](OC(=O)C(O)(c3cccs3)c3cccs3)C[C@H]1[C@@H]1O[C@@H]12 [TIO, tiotropium, reference compound] | 27.5 (19.53) | 46.7 (43.56) | 76.0 (40.40) | 47.3 (19.06) | 55.8 (36.62) | 84.1 (40.02) |  |  |  |  |  |  |  |  |  |  |  |
| CN(CCN1CCC(OC(=O)Nc2ccccc2-c2ccccc2)CC1)C(=O)c1ccc(CN2CCC(C(N)=O)CC2)cc1 [REV, 1-(2-{4-[(4-carbamoylpiperidin-1-yl)methyl]-N-methylbenzamido}ethyl) piperidin-4-yl N-([1,1′-biphenyl]-2-yl)carbamate] | 74.8 (20.85) | 146.5 (46.69) | 89.7 (42.85) | 63.0 (20.17) | 125.4 (38.75) | 71.4 (42.33) | 47.3 (21.76) | 99.9 (48.75) | 13.7 (45.43) | No differences in trough IC were noted; also recorded: statistically significant difference in trough IC was not observed | 15.7 (22.35) | 69.6 (42.90) | −12.7 (47.38) | did not meet statistical significance nor clinical relevance; also recorded: statistically significant difference in trough FEV1 was not observed | did not meet statistical significance nor clinical relevance; also recorded: statistically significant difference in trough FVC was not observed | statistically significant and clinically relevant greater improvements; also recorded: statistically significant difference in trough FEV1 was observed | statistically significant and clinically relevant greater improvements; also recorded: statistically significant difference in trough FVC was observed |
